Source: publication PMC4284702, “Cloning and Characterization of Farnesyl Diphosphate Synthase Gene Involved in Triterpenoids Biosynthesis from Poria cocos” (International Journal of Molecular Sciences, 2014)

Target: rPc-FPS (Pc-FPS, recombinant farnesyl diphosphate synthase of Poria cocos) (Wolfiporia cocos, UniProt K7DW87)
Experiment: GC of farnesol after acid phosphatase hydrolysis of product FPP
Format: biochemical
Conditions: 2 mM MgCl2, 5 mM DTT, 50 mM MOPS pH 7.5, 30 °C, 3 h

rPc-FPS (Pc-FPS, recombinant farnesyl diphosphate synthase of Poria cocos), sequence (K7DW87 entry or part of it): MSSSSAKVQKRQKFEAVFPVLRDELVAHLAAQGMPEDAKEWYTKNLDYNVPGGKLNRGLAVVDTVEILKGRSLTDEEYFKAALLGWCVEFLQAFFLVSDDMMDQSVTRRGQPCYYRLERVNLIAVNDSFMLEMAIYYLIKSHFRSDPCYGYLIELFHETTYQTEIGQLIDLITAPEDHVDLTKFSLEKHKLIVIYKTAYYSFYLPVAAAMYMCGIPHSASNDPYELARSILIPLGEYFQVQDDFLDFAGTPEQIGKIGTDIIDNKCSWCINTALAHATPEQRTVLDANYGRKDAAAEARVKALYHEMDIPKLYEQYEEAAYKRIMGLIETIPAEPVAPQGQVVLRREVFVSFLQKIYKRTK

SMILES | GC of farnesol after acid phosphatase hydrolysis of product FPP (50 uM IPP, co-substrate 50 uM GPP) | GC of farnesol after acid phosphatase hydrolysis of product FPP (50 uM GPP, co-substrate 50 uM IPP)
C=C(C)CCOP(=O)(O)OP(=O)(O)O [IPP] | rPc-FPS could catalyze the formation of FPP from GPP and IPP | –
CC(C)=CCC/C(C)=C/COP(=O)(O)OP(=O)(O)O [GPP] | – | the purified rPc-FPS was used to catalyze GPP with IPP to produce FPP
